Laboratory results reported in US20050187288A1, “Beta-lapachone and methods of treating cancer” (priority 2004, published 2005).
“And” between values parts separate entries of the source, which are not always exact repeats. Equal entries are not always repeated. Where two headings read alike, the source gives them in different places.

Experiments:
[1] = test system: HCT-116; assay: cells; conditions: Homo sapiens, HCT-116, read-out: LC50 (Replicate Results), HCT-116, 4 hour exposure, colonies after 14-21 days
Method: (§5) Control plates received the same volume of DMSO alone. After a 4 hour exposure the drug was carefully removed, and drug-free medium could be added. […] Colonies of greater than 50 cells were scored as survivors. Cells were maintained at 37° C. in 5% CO2 in complete humidity.
Control plates received the same volume of DMSO alone. After a 4 hour exposure the drug was carefully removed, and drug-free medium was added. […] Colonies of greater than 50 cells were scored as survivors. Cells were maintained at 37° C. in 5% CO2 in complete humidity. Each “Replicate Result” represents the result of a separate experiment.

[2] = dog, in vivo
Text: On Day 23 of the study, 4 animals/sex/group were euthanized (barbiturate overdose) followed by exsanguination and subjected to necropsy as described below.

[3] = test system: normal breast epithelial cells (MCF-10A); assay: Colony formation assay, cancer vs normal breast cells; type: cell-based, human; conditions: 4 h treatment
Text: (§1) After 10-20 days, cells were fixed and stained with modified Wright-Giemsa stain.

[4] = test system: DU-145; assay: cells; conditions: Homo sapiens, DU-145, read-out: LC50 (Replicate Results), DU-145, 4 hour exposure, colonies after 14-21 days
Method: as §5

[5] = test system: PC-3; conditions: human, 4 h
Method: as §5

[6] = test system: DU145 human prostate cancer; assay: Human prostate cancer xenograft model; type: in vivo, mice
Method: Tumors were measured throughout treatment and the post-treatment observation period. […] Tumor nodules were measured during the treatment period (Days 21-43) and at the end of observation (Day 56). Dose-related inhibition of tumor growth is seen, with little tumor growth following completion of treatment. […] Tumor nodules were measured pre-treatment (“Pre-Tx”), at the end of the 30-day treatment period (“Post-Tx”) and at the conclusion of the post treatment observation period 14 days following termination of treatment (“Post-Exp't”).

[7] = test system: A549 human lung cancer cells; conditions: 60 mg/kg IP every three days, 8 treatments
Method: Athymic female nude mice (Ncr) were inoculated subcutaneously with 4×10^6 A549 human lung cancer cells, and the tumors were allowed to grow to 50 mm^3 in size. The animals were randomized into three groups of seven animals per group. […] Mean tumor volume was then analyzed.

[8] = test system: PaCa-2 pancreatic cancer cells; assay: cells; conditions: Homo sapiens
[9] = test system: human Panc-1 pancreatic cancer cells; type: in vivo, mice
Method: (§2) The animals were randomized into three groups. […] Mean tumor volume was then analyzed.

[10] = test system: E2F1; assay: E2F1 induction; type: cell-based, human; design: key: “+” symbol represents overexpression of E2F1 relative to a control
[11] = Study 2B: dose-range-finding toxicity study, single intravenous administration in dogs; conditions: two dogs
Method: The time interval between each dose was three to four days.
Whole blood samples (1 ml/sample) were also collected on each day of dose administration for toxicokinetics analysis.

[12] = test system: SK-MEL-28; conditions: human, 4 h
Method: as §5

[13] = test system: MCF-7; assay: cells; conditions: Homo sapiens, MCF7, read-out: LC50 (Replicate Results), MCF-7, 4 hour exposure, colonies after 14-21 days
Method: as §5

[14] = Stability on incubation in human plasma; type: in vitro ADME; conditions: incubated in human plasma at 37° C. for 16 hrs; previous studies
[15] = test system: multiple myeloma (MM) cells; assay: MTT assay of multiple myeloma cells; type: cell-based, human; conditions: 4 μM, 24 h, all seven MM cell lines
[16] = test system: HT-29 human colon cancer cells; assay: Human colon cancer xenograft model; type: in vivo, mice
Method: as §2

[17] = test system: SK-OV-3; assay: cells; conditions: Homo sapiens, SK-OV-3, read-out: LC50 (Replicate Results), SK-OV-3, 4 hour exposure, colonies after 14-21 days
Method: as §5

[18] = Study 1B: dose-range-finding single dose intravenous toxicity study in rats
Text: In Study No. 1B, five groups of six adult Sprague-Dawley rats (three male and three female) were randomized to treatment groups and treated via intravenous infusion as shown in
Other observations included clinical signs, body weights and food consumption. On Day 8, animals were anesthetized with CO2 and blood for testing was collected by cardiocentesis, then animals were euthanized by CO2 asphyxiation and subjected to gross necropsy with histopathological evaluation performed on major organs (lungs, heart, liver, brain, spleen and kidneys).

[19] = in vivo; conditions: Sprague-Dawley, rat, 10 mg/kg, AUC* (estimated from toxicology experiments)
[20] = test system: human breast cancer cells (MCF-7); assay: Colony formation assay, cancer vs normal breast cells; type: cell-based; conditions: MCF-7, 4 h treatment
Text: as §1

[21] = test system: BxPC-3; assay: cells; conditions: Homo sapiens
Text: (§3) Control plates received the same volume of DMSO alone.
(§4) Control plates receive the same volume of DMSO alone. […] Each “Replicate Result” represents the result of a separate experiment.

[22] = test system: PaCa-2; assay: cells
Text: as §3, §4

[23] = Pharmacokinetic data from toxicology study in dogs, one-hour intravenous infusion; type: in vivo; conditions: both sexes, dog
Method: In this study, two dogs (one male, one female) were administered β-lapachone intravenously in the HPBCD formulation over one hour. The animals received escalating doses of 5, 15, 30 and 45 mg/kg, with three to four days between doses. The mean response of the two dogs is shown at each dose level. […] Doses up to and including 30 mg/kg produced no toxicity.

[24] = Study 3A: neuropharmacological profile in rats
Method: In Study No. 3A, four groups of ten male Sprague-Dawley rats were dosed with a single 1 hour intravenous infusion via the tail vein at doses of 0 (vehicle), 5, 25, and 60 mg/kg as shown in Table 12.
Following dosing, animals were placed in a fixed environment consisting of a Plexiglas square, fitted with a lid and placed on absorbent paper to detect excretions.
Body temperatures were taken on all animals at 15 minutes following dose administration.

CC1(C)CCC2=C(O1)c1ccccc1C(=O)C2=O [β-lapachone, 3,4-dihydro-2,2-dimethyl-2H-naphtho [1,2-b]pyran-5,6-dione]
CC50 [1]: 2290 nM
plasma levels (preliminary toxicokinetic results) [2]: significantly above the values predicted
tolerability ([2]; iv, 5 mg/kg): well-tolerated
number of colonies [3]: no reduction in the number of colonies
CC50 [4]: 1100 nM
CC50 [5]: 2340 nM
tumor growth ([6]; 100 mg/kg in Lipiodol IP q3d, 30-day treatment): greater suppression of tumor growth
tumor growth ([6]; 25 and 50 mg/kg in Lipiodol IP q3d): inhibited tumor growth in a dose-dependent manner
reduction of mean tumor volume [7]: approximately 50%
CC50 ([8]; PaCa-2, read-out: LC50, PaCa-2 Clone A surviving >LC99): 2590 nM
CC50 ([8]; PaCa-2, read-out: LC50, PaCa-2 Clone B surviving >LC99): 2720 nM
CC50 ([8]; PaCa-2, read-out: LC50, PaCa-2 WT): 2690 nM
mean tumor volume ([9]; 40 and 60 mg/kg IP every three days, 5 treatments): reduced the mean tumor volume
toxicity ([9]; mouse, in vivo): No sign of significant toxicity
E2F1 Induction ([10]; Colon HT-29): +
E2F1 Induction ([10]; Colon SW480): +
E2F1 Induction ([10]; Pancreas PANC1): +
total bilirubin levels ([11]; 45 mg/kg dose, predose 0.38 and 0.26): 0.66 mg/dL and 0.87 mg/dL
hemoglobin at end of study ([11]; 11-day study, declined from 14.9 and 13.5): 9.1 g/dL and 9.7 g/dL
CC50 [12]: 2630 nM
CC50 [13]: 1450 nM
stability in human plasma [14]: stable to degradation
cell viability in cultures [15]: significantly decreased
reduction of mean tumor volume ([16]; 60 mg/kg IP every three days, 10 treatments): approximately 75%
toxicity ([16]; mouse, in vivo): No sign of significant toxicity
CC50 [17]: 1180 nM
clinical signs ([18]; 60 mg/kg, 1-2 hours after dosing, resolved by Day 2): transient clinical signs
histopathological findings ([18]; 75 mg/kg group): Minimal to mild hepatocellular vacuolation and renal tubular epithelial pallor and attenuation
mortality and clinical signs ([18]; 30 or 45 mg/kg dose groups): No mortality or clinical signs of toxicity
hematology and serum chemistry values ([18]; all groups): generally unremarkable
NOEL ([18]; single one-hour intravenous dose at 3 mg/ml, male and female rats): 45 mg/kg
AUC [19]: 2640 ng·h/mL
concentrations giving essentially complete elimination of colonies [20]: ≥ 24 µM
CC50 ([21]; BXPC-3, read-out: LC50 (Replicate Results)): 1890 nM
CC50 ([21]; BXPC-3, read-out: LC50 (Replicate Results), BxPC-3, 4 hour exposure, colonies after 14-21 days): 1890 nM
CC50 ([22]; Homo sapiens, PaCa-2, read-out: LC50 (Replicate Results)): 1680 nM
CC50 ([22]; Homo sapiens, PaCa-2, read-out: LC50 (Replicate Results), PaCa-2, 4 hour exposure, colonies after 14-21 days): 1680 nM
CC50 ([22]; human, 4 h): 1520 nM
AUC ([23]; in vivo, 5 mg/kg): 13600 ng·h/mL
half-life ([23]; plasma, intravenous, across the dose range, read-out: terminal half-life (converted)): ~16 h
Cmax ([23]; plasma, iv, 5 mg/kg, 60 min infusion): 750 ng/mL
AUC ([23]; plasma, iv, 5 mg/kg, 60 min infusion, mean of two dogs, read-out: AUC): 13600 ng·h/mL
half-life ([23]; plasma, iv, 5 mg/kg, 60 min infusion, read-out: T1/2): ~16 h
Cmax ([23]; plasma, iv, 15 mg/kg, 60 min infusion): 1150 ng/mL
AUC ([23]; plasma, iv, 15 mg/kg, 60 min infusion, mean of two dogs, read-out: AUC): 20200 ng·h/mL
half-life ([23]; plasma, iv, 15 mg/kg, 60 min infusion, read-out: T1/2): ~16 h
Cmax ([23]; plasma, iv, 30 mg/kg, 60 min infusion): 1480 ng/mL
AUC ([23]; plasma, iv, 30 mg/kg, 60 min infusion, mean of two dogs, read-out: AUC): 26000 ng·h/mL
half-life ([23]; plasma, iv, 30 mg/kg, 60 min infusion, read-out: T1/2): ~16 h
animals that died during the infusion ([24]; 60 mg/kg at 6 mg/ml): Five of the ten animals
mean body temperature ([24]; 60 mg/kg, 15-minutes post dosing): 34.6 °C
NOEL ([24]; single intravenous dose, male Sprague Dawley rats): 25 mg/kg
